Where two headings read alike, the source gives them in different places.
Legend:
HCC38 cells = assay: CyQUANT cell viability assay, 48-hour exposure; assay type: cell-based, human
Description: After drug treatments, fluorescence readings from 96-well plates were obtained using the CyQUANT dye and compared to standard curves for each cell line to determine cell viability. […] Trypan blue exclusion was used to estimate cell numbers in a few pilot experiments and was thereafter applied to confirm cell death.
A series of experiments was conducted to assess the relative efficacy of 4SP65, 1LP65, and amifostine as single agents in the same human cancer cell lines. First, the effectiveness of 4SP65 was tested against 15 cancer cell lines derived from seven tissues. […] The effectiveness of 0 to ≤500 μM amifostine was tested in sets of cancer cell lines reported to have either medium, high, or no expression of alkaline phosphatase.
Trans. R Soc. Lond. […] Using cell numbers based on fluorescence measurements and standard curves [time zero, (Tz), control growth, (C), and test growth in the presence of drug at five or more concentration levels (Ti)], the percentage growth was calculated at each drug concentration level. The percentage of growth inhibition was calculated as follows:
The LC50/99 was calculated using Equation 2=−50 and Eq. 2=−99, respectively. […] For NHMECs, the relationships between drug exposure levels and fluorescence units were used to define dose-response metrics. The selectivity index (SI) values for individual drug treatments were calculated as IC50 levels in NHMECs divided by the IC50 values in cancer cell lines.

HPM3 cells = assay: Dose-response metrics in immortalized, non-tumorigenic cells; assay type: cell-based
Description: (§1) To determine potential cytostatic or cytocidal effects of BRG prodrugs in immortalized, non-tumorigenic cells, Vero, HEK-293t, LP9, and HPM3 cells were exposed to 4SP65 while only Vero cells also were treated with 1LP65. […] Comparisons across other dose-response metrics could not be made because such levels of effects were not induced in NHMECs exposed to 4SP65. […] Since cytostatic and cytolytic effects at the TGI and LC50/99 levels were induced in Vero cells exposed to 1LP65 but not in NHMECs, there is a significant difference in the effects of 1LP65 in Vero cells compared to NHMECs, but p values based upon t-test evaluations cannot be defined due to lack of numerical data.

A549 NSCLC cells = settings: 48 h; for GI50 / IC50 / LC99 / TGI: each drug alone
Description: (§2) Trypan Blue exclusion was applied as a complementary confirmation probe for cell death.
(§3) Statistical comparisons of differences in individual dose-response metrics between individual/paired drug treatments and various cell lines were conducted using the Student's t-test, with P-values <0.05 considered significant.
(§4) Relative cell growth inhibition values for differing levels each drug alone and in combination were input into SynergyFinder to generated dose-response curves for each drug alone, to produce a dose-response matrix, to visualize the distribution of areas of differing degrees of synergism in a 2-dimension heatmap and 3-dimension volcano plot, and to calculate average and maximum synergy scores in selected human cancer cell lines. […] Synergy scores <10 means that the interaction between two drugs was likely to be antagonistic; scores from −10 to 10 means the interaction between two drugs was likely to be additive; and scores >10 means the interaction between two drugs was likely to be synergistic.

[1] = test system: SKOV3 ovarian cancer cells; assay type: cell-based
Description: as §2, §3, §4

[2] = Dose-response metrics in immortalized, non-tumorigenic cells; assay type: cell-based; settings: African green monkey, Vero cells (immortalized, non-tumorigenic); read-out: LC50 (the source's name)
Description: as §1

Compound	Relative potency compared to amifostine at IC50 (HCC38 cells; HCC38 cells) [fold]	selectivity index (HCC38 cells; IC50 of 76 in most sensitive NHMEC strain / IC50 in HCC38)	GI50 (HPM3 cells) [µM]	LC99, amount of each drug in combination (A549 NSCLC cells; 4SP65-cisplatin combined) [µM]	GI50 (A549 NSCLC cells; cisplatin series) [µM]	IC50 (A549 NSCLC cells; cisplatin series) [µM]	LC99 (A549 NSCLC cells; cisplatin series) [µM]	TGI (A549 NSCLC cells; cisplatin series) [µM]	GI50 (A549 NSCLC cells; gefitinib series) [µM]	IC50 (A549 NSCLC cells; gefitinib series) [µM]	LC99 (A549 NSCLC cells; gefitinib series) [µM]	TGI (A549 NSCLC cells; gefitinib series) [µM]	CC50 [1] [µM]	GI50 ([1]; SKOV3, each drug alone, 48 h) [µM]	IC50 ([1]; SKOV3, each drug alone, 48 h) [µM]	LC99 ([1]; SKOV3, each drug alone, 48 h) [µM]	TGI ([1]; SKOV3, each drug alone, 48 h) [µM]	fold more effective as cytostatic agent than PRIMA-1/PRIMA-1met (GI50) ([1]; TP53-null SKOV3 cells) [fold]	CC50 [2] [µM]
4-star PEG-S-S-WR1065 [4SP65]	67	> 19	~10	8	5.4 ± 2.5	6.8 ± 1.3	14.9 ± 3.8	8.3 ± 1.5	6 ± 0.6	7.4 ± 0.7	12.3 ± 3.8	11.3 ± 1.5	9.7 ± 0.5	4.3 ± 1	5.2 ± 1	10.0 ± 0.8	7.3 ± 0.8	16	–
COCCOCCOCCOCCOCCOCCSSCCNCCCN [1LP65, m-PEG6-S-S-WR1065]	–	–	–	–	–	–	–	–	–	–	–	–	–	–	–	–	–	–	129 ± 3.4
